Experimental data taken from patent publication EP4725957A1, “GROUP OF CYCLIC ALKALINE LIPOPEPTIDE COMPOUNDS, AND PREPARATION METHOD THEREFOR AND USE THEREOF” (Institute of Medicinal Biotechnology, Chinese Academy of …, priority 2023, dated 2024).
≈ marks a conversion by molar mass, not a printed value. Bridge positions count the residues as written; N and C are the ends. Square brackets hold non-standard residues; d marks the D form. Peptide text beside a SMILES is read from it. * marks the point of attachment. Heptanoyl(6-Me) = CC(C)CCCCC(=O)*; dOrn = NCCC[C@@H](N)C(=O)O; Nonanoyl = CCCCCCCCC(=O)*; X1 = CC[C@H](C)CCCCC(=O)*; dDab = NCC[C@@H](N)C(=O)O; Heptanoyl = CCCCCCC(=O)*; Octanoyl = CCCCCCCC(=O)*; Orn = NCCC[C@H](N)C(=O)O; dDap = NC[C@@H](N)C(=O)O; Dab = NCC[C@H](N)C(=O)O; Dap = NC[C@H](N)C(=O)O

Assays:
Type in all cases: cell-based
[1] = system: Acinetobacter baumannii NCTC 13304 (OXA-27); settings: NCTC 13304
Method in brief: (§1)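 MIC by CLSI broth microdilution; MH broth; final drug 64–0.03 mg/L, 2-fold; inoculum (2-4) × 10^5 CFU/mL from 0.5 McFarland suspension of 18-24 h colonies; 35-37°C, 16-20 h; growth controls included.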

[2] = system: Acinetobacter baumannii ABA19-1; settings: ABA19-1
Method in brief: as §1

[3] = system: Klebsiella pneumoniae ATCC BAA-1705 (KPC); settings: ATCC BAA-1705
Method in brief: as §1

[4] = system: Pseudomonas aeruginosa PAE19-3; settings: PAE19-3
Method in brief: as §1

[5] = system: Escherichia coli ATCC BAA-2523; settings: ATCC BAA-2523
Method in brief: as §1

[6] = system: Klebsiella pneumoniae KPN+19-15; settings: KPN+19-15
Method in brief: as §1

[7] = system: Pseudomonas aeruginosa ATCC 27853; settings: ATCC 27853
Method in brief: as §1

[8] = system: Escherichia coli ATCC BAA-2340 (KPC); settings: ATCC BAA-2340
Method in brief: as §1

[9] = Nephrotoxicity assay: in vitro cytotoxicity of HK-2 cells by CCK-8 assay; settings: human, HK-2 cells (human renal), 72 h incubation with drug-containing medium
Method in brief: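 Compounds in sterile water, diluted to final 500, 250, 200, 100, 50, 25 and 12.5 µg/mL, were applied for 72 h to human HK-2 kidney cells. Absorbance at 450 nm after 3 h CCK-8 gave viability against untreated wells, and IC50 came from logarithmic regression; three replicates.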

Compound	MIC [1] [µg/mL]	MIC [2] [µg/mL]	MIC [3] [µg/mL]	MIC [4] [µg/mL]	MIC [5] [µg/mL]	MIC [6] [µg/mL]	MIC [7] [µg/mL]	MIC [8] [µg/mL]	IC50 at 72 h [9] [µg/mL]
CC(C)CCCCC(=O)N[C@@H](CN)C(=O)N[C@H](C(=O)N[C@H](CCN)C(=O)N[C@H]1CCNC(=O)[C@H]([C@@H](C)O)NC(=O)[C@H](CCN)NC(=O)[C@H](CCN)NC(=O)[C@H](CC(C)C)NC(=O)[C@@H](Cc2ccccc2)NC(=O)[C@H](CCN)NC1=O)[C@@H](C)O [Compound 92, 6-methylheptanoyl-Dap-Thr-D-Dab-ring(4-10)[Dab-Dab-D-Phe-Leu-Dab-Dab-Thr]] ({Heptanoyl(6-Me)}-[Dap]T[dDab][Dab][Dab][dF]L[Dab][Dab]T; lactam 4-C)	0.03 (≈ 0.0255 µM)	0.03 (≈ 0.0255 µM)	0.03 (≈ 0.0255 µM)	0.5 (≈ 0.425 µM)	0.03 (≈ 0.0255 µM)	0.03 (≈ 0.0255 µM)	0.5 (≈ 0.425 µM)	0.03 (≈ 0.0255 µM)	228 ± 18.7 (≈ 194 µM)
CCCCCCCCC(=O)N[C@@H](CCN)C(=O)N[C@H](C(=O)N[C@@H](CCCN)C(=O)N[C@H]1CCNC(=O)[C@H]([C@@H](C)O)NC(=O)[C@H](CCN)NC(=O)[C@H](CCN)NC(=O)[C@H]([C@@H](C)O)NC(=O)[C@@H](Cc2ccccc2)NC(=O)[C@H](CCN)NC1=O)[C@@H](C)O [Compound 30, Nonanoyl-Dab-Thr-Orn-ring(4-10)[Dab-Dab-D-Phe-Thr-Dab-Dab-Thr]] (Nonanoyl-[Dab]T[Orn][Dab][Dab][dF]T[Dab][Dab]T; lactam 4-C)	0.06 (≈ 0.0498 µM)	0.125 (≈ 0.104 µM)	0.03 (≈ 0.0249 µM)	0.5 (≈ 0.415 µM)	0.03 (≈ 0.0249 µM)	0.03 (≈ 0.0249 µM)	0.03 (≈ 0.0249 µM)	0.03 (≈ 0.0249 µM)	270 ± 13.1 (≈ 224 µM)
CCCCCCCCC(=O)N[C@@H](CCN)C(=O)N[C@H](C(=O)N[C@H](CN)C(=O)N[C@H]1CCNC(=O)[C@H]([C@@H](C)O)NC(=O)[C@H](CCN)NC(=O)[C@H](CCN)NC(=O)[C@H](CC(C)C)NC(=O)[C@@H](Cc2ccccc2)NC(=O)[C@H](CCN)NC1=O)[C@@H](C)O [Compound 35, Nonanoyl-Dab-Thr-D-Dap-ring(4-10)[Dab-Dab-D-Phe-Leu-Dab-Dab-Thr]] (Nonanoyl-[Dab]T[dDap][Dab][Dab][dF]L[Dab][Dab]T; lactam 4-C)	0.06 (≈ 0.0504 µM)	0.06 (≈ 0.0504 µM)	0.06 (≈ 0.0504 µM)	0.5 (≈ 0.42 µM)	0.06 (≈ 0.0504 µM)	0.06 (≈ 0.0504 µM)	0.06 (≈ 0.0504 µM)	0.06 (≈ 0.0504 µM)	138 ± 8.3 (≈ 116 µM)
CCCCCCCC(=O)N[C@@H](CCN)C(=O)N[C@H](C(=O)N[C@@H](CCCN)C(=O)N[C@H]1CCNC(=O)[C@H]([C@@H](C)O)NC(=O)[C@H](CCN)NC(=O)[C@H](CCN)NC(=O)[C@H](CC(C)C)NC(=O)[C@@H](Cc2ccccc2)NC(=O)[C@H](CCN)NC1=O)[C@@H](C)O [Compound 48, Octanoyl-Dab-Thr-Orn-ring(4-10)[Dab-Dab-D-Phe-Leu-Dab-Dab-Thr]] (Octanoyl-[Dab]T[Orn][Dab][Dab][dF]L[Dab][Dab]T; lactam 4-C)	0.06 (≈ 0.0499 µM)	0.125 (≈ 0.104 µM)	≤0.03	0.25 (≈ 0.208 µM)	0.03 (≈ 0.0249 µM)	≤0.03	≤0.03	0.03 (≈ 0.0249 µM)	239 ± 7.4 (≈ 199 µM)
CCCCCCCC(=O)N[C@@H](CCN)C(=O)N[C@H](C(=O)N[C@H](CO)C(=O)N[C@H]1CCNC(=O)[C@H]([C@@H](C)O)NC(=O)[C@H](CCN)NC(=O)[C@H](CCCN)NC(=O)[C@H]([C@@H](C)O)NC(=O)[C@@H](Cc2ccccc2)NC(=O)[C@H](CCN)NC1=O)[C@@H](C)O [Compound 78, Octanoyl-Dab-Thr-D-Ser-ring(4-10)[Dab-Dab-D-Phe-Thr-Orn-Dab-Thr]] (Octanoyl-[Dab]T[dS][Dab][Dab][dF]T[Orn][Dab]T; lactam 4-C)	≤0.03	0.06 (≈ 0.0509 µM)	0.25 (≈ 0.212 µM)	64 (≈ 54.3 µM)	≤0.03	0.5 (≈ 0.424 µM)	>64	≤0.03	> 500
CC[C@H](C)CCCCC(=O)N[C@@H](CCCN)C(=O)N[C@H](C(=O)N[C@H](CO)C(=O)N[C@H]1CCNC(=O)[C@H]([C@@H](C)O)NC(=O)[C@H](CCN)NC(=O)[C@H](CCN)NC(=O)[C@H]([C@@H](C)O)NC(=O)[C@@H](Cc2ccccc2)NC(=O)[C@H](CCN)NC1=O)[C@@H](C)O [Compound 56, (S)-6-methyloctanoyl-Orn-Thr-D-Ser-ring(4-10)[Dab-Dab-D-Phe-Thr-Dab-Dab-Thr]] (X1-[Orn]T[dS][Dab][Dab][dF]T[Dab][Dab]T; lactam 4-C)	0.25 (≈ 0.21 µM)	0.25 (≈ 0.21 µM)	0.25 (≈ 0.21 µM)	4 (≈ 3.35 µM)	0.125 (≈ 0.105 µM)	0.5 (≈ 0.419 µM)	64 (≈ 53.7 µM)	0.125 (≈ 0.105 µM)	> 500
CCCCCCCCC(=O)N[C@@H](CCN)C(=O)N[C@H](C(=O)N[C@@H](CCN)C(=O)N[C@H]1CCNC(=O)[C@H]([C@@H](C)O)NC(=O)[C@H](CCN)NC(=O)[C@H](CCN)NC(=O)[C@H]([C@@H](C)O)NC(=O)[C@@H](Cc2ccccc2)NC(=O)[C@H](CCN)NC1=O)[C@@H](C)O [Compound 20, Nonanoyl-Dab-Thr-Dab-ring(4-10)[Dab-Dab-D-Phe-Thr-Dab-Dab-Thr]] (Nonanoyl-[Dab]T[Dab][Dab][Dab][dF]T[Dab][Dab]T; lactam 4-C)	0.25 (≈ 0.21 µM)	0.5 (≈ 0.42 µM)	0.06 (≈ 0.0504 µM)	2 (≈ 1.68 µM)	0.06 (≈ 0.0504 µM)	0.06 (≈ 0.0504 µM)	2 (≈ 1.68 µM)	0.06 (≈ 0.0504 µM)	280 ± 10.3 (≈ 235 µM)
CCCCCCC(=O)N[C@@H](CCN)C(=O)N[C@H](C(=O)N[C@H](CO)C(=O)N[C@H]1CCNC(=O)[C@H]([C@@H](C)O)NC(=O)[C@H](CCN)NC(=O)[C@H](CN)NC(=O)[C@H]([C@@H](C)O)NC(=O)[C@@H](Cc2ccccc2)NC(=O)[C@H](CCN)NC1=O)[C@@H](C)O [Compound 74, Heptanoyl-Dab-Thr-D-Ser-ring(4-10)[Dab-Dab-D-Phe-Thr-Dap-Dab-Thr]] (Heptanoyl-[Dab]T[dS][Dab][Dab][dF]T[Dap][Dab]T; lactam 4-C)	0.03 (≈ 0.0264 µM)	0.06 (≈ 0.0528 µM)	0.25 (≈ 0.22 µM)	64 (≈ 56.3 µM)	0.06 (≈ 0.0528 µM)	0.5 (≈ 0.44 µM)	>64	0.06 (≈ 0.0528 µM)	> 500
CC(C)CCCCC(=O)N[C@@H](CCN)C(=O)N[C@H](C(=O)N[C@H](CO)C(=O)N[C@H]1CCNC(=O)[C@H]([C@@H](C)O)NC(=O)[C@H](CCN)NC(=O)[C@H](CN)NC(=O)[C@H]([C@@H](C)O)NC(=O)[C@@H](Cc2ccccc2)NC(=O)[C@H](CCN)NC1=O)[C@@H](C)O [Compound 72, 6-methylheptanoyl-Dab-Thr-D-Ser-ring(4-10)[Dab-Dab-D-Phe-Thr-Dap-Dab-Thr]] ({Heptanoyl(6-Me)}-[Dab]T[dS][Dab][Dab][dF]T[Dap][Dab]T; lactam 4-C)	≤0.03	0.06 (≈ 0.0522 µM)	0.25 (≈ 0.217 µM)	64 (≈ 55.6 µM)	≤0.03	0.5 (≈ 0.435 µM)	>64	≤0.03	> 500
CCCCCCCC(=O)N[C@@H](CCN)C(=O)N[C@H](C(=O)N[C@H](CCCN)C(=O)N[C@H]1CCNC(=O)[C@H]([C@@H](C)O)NC(=O)[C@H](CCN)NC(=O)[C@H](CCN)NC(=O)[C@H]([C@@H](C)O)NC(=O)[C@@H](Cc2ccccc2)NC(=O)[C@H](CCN)NC1=O)[C@@H](C)O [Compound 23, Octanoyl-Dab-Thr-D-Orn-ring(4-10)[Dab-Dab-D-Phe-Thr-Dab-Dab-Thr]] (Octanoyl-[Dab]T[dOrn][Dab][Dab][dF]T[Dab][Dab]T; lactam 4-C)	0.06 (≈ 0.0504 µM)	0.125 (≈ 0.105 µM)	0.06 (≈ 0.0504 µM)	1 (≈ 0.839 µM)	≤0.03	0.125 (≈ 0.105 µM)	0.25 (≈ 0.21 µM)	≤0.03	> 500
CC[C@H](C)CCCCC(=O)N[C@@H](CCN)C(=O)N[C@H](C(=O)N[C@@H](CCCN)C(=O)N[C@H]1CCNC(=O)[C@H]([C@@H](C)O)NC(=O)[C@H](CCN)NC(=O)[C@H](CCN)NC(=O)[C@H]([C@@H](C)O)NC(=O)[C@@H](Cc2ccccc2)NC(=O)[C@H](CCN)NC1=O)[C@@H](C)O [Compound 26, (S)-6-methyloctanoyl-Dab-Thr-Orn-ring(4-10)[Dab-Dab-D-Phe-Thr-Dab-Dab-Thr]] (X1-[Dab]T[Orn][Dab][Dab][dF]T[Dab][Dab]T; lactam 4-C)	0.06 (≈ 0.0498 µM)	0.125 (≈ 0.104 µM)	≤0.03	0.25 (≈ 0.207 µM)	≤0.03	≤0.03	≤0.03	≤0.03	> 500
